Test results taken from US10745382B2 (BRISTOL-MYERS SQUIBB COMPANY, priority 2015, dated 2020).

Molecular target: T1, PD-1/PD-L1 (Homo sapiens, UniProt Q9NZQ7)
T1 construct: made in house; host or cells: HEK293T
Assay: PD-1/PD-L1 Homogenous Time-Resolved Fluorescence (HTRF) binding assay
Details: PD-L1-His 10 nM, PD-1-Ig 20 nM; value given as range class; read-out: Range or IC50
How it was run: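 Read-out is time-resolved FRET between europium cryptate-labelled anti-Ig (1 nM final) and APC-labelled anti-His (20 nM final), both dispensed onto the binding mix. Assay buffer: dPBS containing 0.1% bovine serum albumin and 0.05% Tween-20.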

T1 sequence (Q9NZQ7 with tags, fused parts or gaps): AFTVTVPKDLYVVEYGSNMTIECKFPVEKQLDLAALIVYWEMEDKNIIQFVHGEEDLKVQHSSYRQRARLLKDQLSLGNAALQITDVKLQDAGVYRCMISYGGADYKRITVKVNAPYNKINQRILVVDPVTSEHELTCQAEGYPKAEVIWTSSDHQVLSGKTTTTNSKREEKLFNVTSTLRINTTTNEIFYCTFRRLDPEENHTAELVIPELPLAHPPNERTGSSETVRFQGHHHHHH

IC50 [µM] | Compound
0.1 to 2 | Cc1c(COc2cc(OCc3cncc(C#N)c3)c(CN3CCC[C@H]3C(=O)O)cc2Cl)cccc1-c1cccc(C(=O)N2CCOCC2)c1C [Example 4049, (5-chloro-2-((5-cyanopyridin-3-yl)methoxy)-4-((2,2′-dimethyl-3′-(morpholine-4-carbonyl)-[1,1′-biphenyl]-3-yl)methoxy)benzyl)-L-proline]
0.01 to 0.1 | CCNC(=O)c1cccc(-c2cccc(COc3cc(OCc4cncc(C#N)c4)c(CN4C[C@H](O)C[C@H]4C(=O)O)cc3Cl)c2C)c1C [Example 4008, (2S,4R)-1-(5-chloro-2-((5-cyanopyridin-3-yl)methoxy)-4-((3′-(ethylcarbamoyl)-2,2′-dimethyl-[1,1′-biphenyl]-3-yl)methoxy)benzyl)-4-hydroxypyrrolidine-2-carboxylic Acid]
0.00021 to 0.01 | Cc1c(COc2cc(OCc3cncc(C#N)c3)c(CN3CCCC[C@H]3C(=O)O)cc2Cl)cccc1-c1cccc(OCCCN2C[C@H](O)C[C@H]2C(N)=O)c1Cl [Example 1085, (S)-1-(4-((3′-(3-((2S,4R)-2-carbamoyl-4-hydroxypyrrolidin-1-yl)propoxy)-2′-chloro-2-methyl-[1,1′-biphenyl]-3-yl)methoxy)-5-chloro-2-((5-cyanopyridin-3-yl)methoxy)benzyl)piperidine-2-carboxylic Acid]
0.00021 to 0.01 | Cc1c(COc2cc(OCc3cncc(C#N)c3)c(CN[C@H](C(=O)O)[C@@H](C)O)cc2Cl)cccc1-c1cccc(OCCCN2CC[C@@H](O)C2)c1C [Example 4148, (5-chloro-2-((5-cyanopyridin-3-yl)methoxy)-4-((3′-(3-((R)-3-hydroxypyrrolidin-1-yl)propoxy)-2,2′-dimethyl-[1,1′-biphenyl]-3-yl)methoxy)benzyl)-L-threonine]

The next lines start with the compound.

Compound | IC50 [µM]
CC(=O)NC1CCN(CCCOc2cccc(-c3cccc(COc4cc(OCc5cncc(C#N)c5)c(CNC(CO)CO)cc4Cl)c3C)c2Cl)C1 (centres unmarked) [Example 2052, N-(1-(3-((2-chloro-3′-((2-chloro-5-((5-cyanopyridin-3-yl)methoxy)-4-(((1,3-dihydroxypropan-2-yl)amino)methyl)phenoxy)methyl)-2′-methyl-[1,1′-biphenyl]-3-yl)oxy)propyl)pyrrolidin-3-yl)acetamide] | 0.00021 to 0.01
Cc1c(COc2cc(OCc3cncc(C#N)c3)c(CN[C@@](C)(CO)C(=O)O)cc2Cl)cccc1-c1cccc(OCCCN2CCC(NC(=O)C(F)(F)F)C2)c1C (stereo partly drawn) [Example 2274, (2S)-2-((5-chloro-2-((5-cyanopyridin-3-yl)methoxy)-4-((2,2′-dimethyl-3′-(3-(3-(2,2,2-trifluoroacetamido)pyrrolidin-1-yl)propoxy)-[1,1′-biphenyl]-3-yl)methoxy)benzyl)amino)-3-hydroxy-2-methylpropanoic Acid] | 0.00021 to 0.01
Cc1c(COc2cc(OCc3cncc(C#N)c3)c(CNC(CO)(CO)CO)c(C)c2Cl)cccc1-c1cccc(OCCCN2CC[C@@H](O)C2)c1C [Example 4104, (R)-5-((4-chloro-2-(((1,3-dihydroxy-2-(hydroxymethyl)propan-2-yl)amino)methyl)-5-((3′-(3-(3-hydroxypyrrolidin-1-yl)propoxy)-2,2′-dimethyl-[1,1′-biphenyl]-3-yl)methoxy)-3-methylphenoxy)methyl)nicotinonitrile] | 0.00021 to 0.01
COC(=O)C1CN(CCCOc2cccc(-c3cccc(COc4cc(OCc5cncc(S(C)(=O)=O)c5)c(CN[C@](C)(CO)C(=O)O)cc4Cl)c3C)c2C)CC1O (stereo partly drawn) [Example 1073, (2R)-2-((5-chloro-4-((3′-(3-(3-hydroxy-4-(methoxycarbonyl)pyrrolidin-1-yl)propoxy)-2,2′-dimethyl-[1,1′-biphenyl]-3-yl)methoxy)-2-((5-(methylsulfonyl)pyridin-3-yl)methoxy)benzyl)amino)-3-hydroxy-2-methylpropanoic Acid] | 0.00021 to 0.01
